For orientation: LC50 means the concentration lethal to half of the exposed cells or organisms.

This series has as its system Spodoptera littoralis. The series is described as follows: Insecticidal bioassay screening (castor leaf dip, larval mortality). It counts as in vivo. The note with it: for Toxic ratio: 72 h, fenoxycarb's LC50 / compound's LC50 × 100. Here is the method:
Five concentrations (200, 100, 50, 25, 12.5 ppm) were designed for this synthetic compound and the reference fenoxycarb compound as the dynamic ingredients based on ppm via diluting the commercial formulation.
In this experiment, castor leaves are immersed in each of the previously prepared concentrations of the components for 10 seconds and then left to dry for 60 minutes. Larvae of the second and fourth instars of each checked strain are prepared with treated leaves in gauze-covered glass containers for 72 hrs. An untreated control is made in which leaves are dipped in triton x-100 and distilled water only. Then the preserved leaves were removed & fresh, untreated leaves were provided for 72 hours. Three replicates (10 larvae each) were checked for each concentration. Daily inspection was carried out for all treatments and mortality percentages were recorded 3 days (72 hours) after treatment. The average mortality percentage was corrected employing Abbott's formula. The corrected mortality rate for each of the previously synthesized compounds is statistically calculated according to Finney (1970). Through this rate, the corresponding concentration test lines (LDP lines) are assessed. Fifty and ninety percent mortality are determined, and the regression values for the checked products were previously evaluated.

Structures are written as SMILES. Values after ≈ are worked out from the molar mass of the structure shown.

In the case of `OC(COc1ccc2ccccc2c1)CN1CCOCC1` (stereo not drawn) [Compound 2, 1-(morpholin-4-yl)-3-(naphthalen-2-yloxy)propan-2-ol], the Toxic ratio (2nd instar larvae) was found to be 15.5 and the Toxic ratio (4th instar larvae) is given as 62.4. Under “Spodoptera littoralis, foliar”, the 50% lethal concentration (LC50) was found to be 17.6 µg/mL (≈ 61.1 µM). Moreover, the “activity against Spodoptera littoralis (in words)” value (compared with the reference insecticide fenoxycarb) is reported as “active against Spodoptera littoralis”.
As for `CCOC(=O)NCCOc1ccc(Oc2ccccc2)cc1` [Fenoxycarb, reference compound], the LC50 by setting is: (2nd instar larvae of S. littoralis, after 72 h of treatment, treated castor leaves) 2.73 ppm; (4th instar larvae of S. littoralis, after 72 h of treatment, treated castor leaves) 43.231 ppm; (Spodoptera littoralis, foliar) 2.73 µg/mL (≈ 9.06 µM). Further, the Toxic ratio (2nd instar larvae) was found to be 100 and the Toxic ratio (4th instar larvae) is recorded as 1.

The record behind these values is patent US11998013B1, “1-(morpholin-4-yl)-3-(naphthalen-2-yloxy)propan-2-ol as an eco-friendly insecticidal agent against spodoptera littoralis (boisd.)” (priority 2023, dated 2024).
